Literature values in patent US20250381202A1, “PRODRUG KIT FOR MULTI-PRONGED CHEMOTHERAPY” (priority 2022, published 2025).
Like-named read-outs stand apart in the source and are kept apart here.

Conditions: in vivo tumor model, area under the curve until the drug concentration reaches zero

For `COc1cccc2c1C(=O)c1c(O)c3c(c(O)c1C2=O)C[C@@](O)(C(=O)CO)C[C@@H]3O[C@H]1C[C@H](N)[C@H](O)[C@H](C)O1` [doxorubicin, Doxorubicin], the AUC0-t (In blood) is listed as 80.9 µg·min/mL and the AUC0-t (Tumor Mean PK) is listed as 33.4 µg·min/mL.
